# ChEMBL document CHEMBL1129930, “Analogues of methotrexate in rheumatoid arthritis. 2. Effects of 5-deazaaminopterin, 5,10-dideazaaminopterin, and analogues on type II collagen-induced arthritis in mice” (J Med Chem, 1997)
# Legend:
# Mus musculus [1] = experiment: Incidence of disease (mouse type II collagen) was scored as the percentage of animals within each experimental group that exhibited joint or limb inflammation on day 23 at intraperitoneal dose of 0.094 mg/kg (deaths observed at 1.5 mg/kg); assay type: functional
# Mus musculus [2] = experiment: Incidence of disease (mouse type II collagen) was scored as the percentage of animals within each experimental group that exhibited joint or limb inflammation on day 44 at intraperitoneal dose of 0.024 mg/kg (deaths observed at 1.5 mg/kg); assay type: functional
# Mus musculus [3] = experiment: Incidence of disease (mouse type II collagen) was scored as the percentage of animals within each experimental group that exhibited joint or limb inflammation on day 44 at intraperitoneal dose of 0.38 mg/kg (deaths observed at 1.5 mg/kg); assay type: functional
# Mus musculus [4] = experiment: Tested for antiinflammatory activity on mouse type II collagen arthritis as Paw swelling of all animals in each group on day 44 at intraperitoneal dose of 0.38 mg/kg; assay type: functional
# Mus musculus [5] = experiment: Tested for antiinflammatory activity on mouse type II collagen arthritis as Paw swelling of all animals in each group on day 44 at intraperitoneal dose of 0.19 mg/kg; assay type: functional
# Mus musculus [6] = experiment: Tested for antiinflammatory activity on mouse type II collagen arthritis as Paw swelling of all animals in each group on day 30 at intraperitoneal dose of 0.38 mg/kg; assay type: functional
# Mus musculus [7] = experiment: Tested for antiinflammatory activity on mouse type II collagen arthritis as Paw swelling of all animals in each group on day 30 at intraperitoneal dose of 0.024 mg/kg; assay type: functional
# Mus musculus [8] = experiment: Incidence of disease (mouse type II collagen) was scored as the percentage of animals within each experimental group that exhibited joint or limb inflammation on day 23 at intraperitoneal dose of 0.75 mg/kg (deaths observed at 1.5 mg/kg); assay type: functional
# Mus musculus [9] = experiment: Incidence of disease (mouse type II collagen) was scored as the percentage of animals within each experimental group that exhibited joint or limb inflammation on day 37 at intraperitoneal dose of 0.094 mg/kg (deaths observed at 1.5 mg/kg); assay type: functional
# Mus musculus [10] = experiment: Incidence of disease (mouse type II collagen) was scored as the percentage of animals within each experimental group that exhibited joint or limb inflammation on day 30 at intraperitoneal dose of 0.19 mg/kg (deaths observed at 1.5 mg/kg); assay type: functional
# Mus musculus [11] = experiment: Incidence of disease (mouse type II collagen) was scored as the percentage of animals within each experimental group that exhibited joint or limb inflammation on day 37 at intraperitoneal dose of 0.024 mg/kg (deaths observed at 1.5 mg/kg); assay type: functional
# Mus musculus [12] = experiment: Tested for antiinflammatory activity on mouse type II collagen arthritis as Paw swelling of all animals in each group on day 30 at intraperitoneal dose of 0.75 mg/kg; assay type: functional
# Mus musculus [13] = experiment: Incidence of disease (mouse type II collagen) was scored as the percentage of animals within each experimental group that exhibited joint or limb inflammation on day 30 at intraperitoneal dose of 0.047 mg/kg (deaths observed at 1.5 mg/kg); assay type: functional
# Mus musculus [14] = experiment: Tested for antiinflammatory activity on mouse type II collagen arthritis as Paw swelling of all animals in each group on day 23 at intraperitoneal dose of 0.38 mg/kg; assay type: functional
# Mus musculus [15] = experiment: Incidence of disease (mouse type II collagen) was scored as the percentage of animals within each experimental group that exhibited joint or limb inflammation on day 37 at intraperitoneal dose of 0.75 mg/kg (deaths observed at 1.5 mg/kg); assay type: functional
# Mus musculus [16] = experiment: Tested for antiinflammatory activity on mouse type II collagen arthritis as Paw swelling of all animals in each group on day 23 at intraperitoneal dose of 0.094 mg/kg; assay type: functional
# Mus musculus [17] = experiment: Tested for antiinflammatory activity on mouse type II collagen arthritis as Paw swelling of all animals in each group on day 30 at intraperitoneal dose of 0.094 mg/kg; assay type: functional
# Mus musculus [18] = experiment: Incidence of disease (mouse type II collagen) was scored as the percentage of animals within each experimental group that exhibited joint or limb inflammation on day 23 at intraperitoneal dose of 0.047 mg/kg (deaths observed at 1.5 mg/kg); assay type: functional
# Mus musculus [19] = experiment: Incidence of disease (mouse type II collagen) was scored as the percentage of animals within each experimental group that exhibited joint or limb inflammation on day 44 at intraperitoneal dose of 0.047 mg/kg (deaths observed at 1.5 mg/kg); assay type: functional
# Mus musculus [20] = experiment: Tested for antiinflammatory activity on mouse type II collagen arthritis as Paw swelling of all animals in each group on day 30 at intraperitoneal dose of 0.19 mg/kg; assay type: functional
# Mus musculus [21] = experiment: Tested for antiinflammatory activity on mouse type II collagen arthritis as Paw swelling of all animals in each group on day 23 at intraperitoneal dose of 0.024 mg/kg; assay type: functional
# Mus musculus [22] = experiment: Incidence of disease (mouse type II collagen) was scored as the percentage of animals within each experimental group that exhibited joint or limb inflammation on day 30 at intraperitoneal dose of 0.094 mg/kg (deaths observed at 1.5 mg/kg); assay type: functional
# [23] = Concentration required to inhibit the growth of chang liver cells.; assay type: functional; conditions: Homo sapiens
# Mus musculus [24] = experiment: Tested for antiinflammatory activity on mouse type II collagen arthritis as Paw swelling of all animals in each group on day 37 at intraperitoneal dose of 0.38 mg/kg; assay type: functional
# Mus musculus [25] = experiment: Incidence of disease (mouse type II collagen) was scored as the percentage of animals within each experimental group that exhibited joint or limb inflammation on day 30 at intraperitoneal dose of 0.75 mg/kg (deaths observed at 1.5 mg/kg); assay type: functional
# Mus musculus [26] = experiment: Incidence of disease (mouse type II collagen) was scored as the percentage of animals within each experimental group that exhibited joint or limb inflammation on day 37 at intraperitoneal dose of 0.047 mg/kg (deaths observed at 1.5 mg/kg); assay type: functional
# Mus musculus [27] = experiment: Tested for antiinflammatory activity on mouse type II collagen arthritis as Paw swelling of all animals in each group on day 37 at intraperitoneal dose of 0.75 mg/kg; assay type: functional
# Mus musculus [28] = experiment: Incidence of disease (mouse type II collagen) was scored as the percentage of animals within each experimental group that exhibited joint or limb inflammation on day 23 at intraperitoneal dose of 0.024 mg/kg (deaths observed at 1.5 mg/kg); assay type: functional
# Mus musculus [29] = experiment: Incidence of disease (mouse type II collagen) was scored as the percentage of animals within each experimental group that exhibited joint or limb inflammation on day 30 at intraperitoneal dose of 0.024 mg/kg (deaths observed at 1.5 mg/kg); assay type: functional
# L1210 = experiment: Concentration required to inhibit the growth of L1210 cells.; assay type: functional, cell-based; conditions: Mus musculus
# Mus musculus [30] = experiment: Incidence of disease (mouse type II collagen) was scored as the percentage of animals within each experimental group that exhibited joint or limb inflammation on day 37 at intraperitoneal dose of 0.19 mg/kg (deaths observed at 1.5 mg/kg); assay type: functional
# Mus musculus [31] = experiment: Incidence of disease (mouse type II collagen) was scored as the percentage of animals within each experimental group that exhibited joint or limb inflammation on day 23 at intraperitoneal dose of 0.38 mg/kg (deaths observed at 1.5 mg/kg); assay type: functional
# Mus musculus [32] = experiment: Tested for antiinflammatory activity on mouse type II collagen arthritis as Paw swelling of all animals in each group on day 44 at intraperitoneal dose of 0.75 mg/kg; assay type: functional
smiles,measurement,setting,value
CCc1c(CN(C)c2ccc(C(=O)NC(CCC(=O)O)C(=O)O)cc2)cnc2nc(N)nc(N)c12 (stereo not drawn),Animals,Mus musculus [1],0%
same,Animals,Mus musculus [2],25%
same,Animals,Mus musculus [3],0%
same,Paw swelling,Mus musculus [4],2.15 mm
same,Paw swelling,Mus musculus [5],2.2 mm
same,Paw swelling,Mus musculus [6],2.16 mm
same,Paw swelling,Mus musculus [7],2.22 mm
same,Animals,Mus musculus [8],0%
same,Animals,Mus musculus [9],25%
same,Animals,Mus musculus [10],12%
same,Animals,Mus musculus [11],0%
same,Paw swelling,Mus musculus [12],2.2 mm
same,Animals,Mus musculus [13],12%
same,Paw swelling,Mus musculus [14],2.15 mm
same,Animals,Mus musculus [15],14%
same,Paw swelling,Mus musculus [16],2.15 mm
same,Paw swelling,Mus musculus [17],2.14 mm
same,Animals,Mus musculus [18],0%
same,Animals,Mus musculus [19],88%
same,Paw swelling,Mus musculus [20],2.14 mm
same,Paw swelling,Mus musculus [21],2.12 mm
same,Animals,Mus musculus [22],12%
same,IC50,[23],0.089 µM
same,Paw swelling,Mus musculus [24],2.17 mm
same,Animals,Mus musculus [25],14%
same,Animals,Mus musculus [26],50%
same,Paw swelling,Mus musculus [27],2.2 mm
same,Animals,Mus musculus [28],0%
same,Animals,Mus musculus [29],0%
same,IC50,L1210,0.001 µM
same,Animals,Mus musculus [30],12%
same,Animals,Mus musculus [31],0%
same,Paw swelling,Mus musculus [32],2.18 mm
